According to EP3269373A1, “LOW-DOSED ORAL DOSAGE FORM OF AN AKR1C3 INHIBITOR FOR TREATMENT OF DISEASES” (Bayer Pharma Aktiengesellschaft, priority 2016, dated 2018):

What was measured:
[1] = Single dose study in healthy postmenopausal women (safety, plasma bilirubin); assay type: in vivo
Experimental: Single center, randomized, placebo-controlled, double-blind and parallel group study. For the 30 mg group only, a one sequence cross-over design was applied to estimate the relative bioavailability of a liquid versus a solid formulation.
In this study the AKR1C3 inhibitor was administered as a single oral dose. Eight volunteers per treatment group were included. Two volunteers per treatment group were allocated to placebo in a randomized, double-blind fashion in order to assess non-drug related factors in the safety evaluation. To ensure that 8 subjects were treated, during the pre-dose phase at least 1 backup subject had to undergo all necessary measurements to compensate for the risk that a person had to be excluded immediately before dosing due to safety concerns.
Forty-six (46, 76.7%) out of 60 treated subjects were treated with the AKR1C3 inhibitor (6 subjects per group at dose levels 1 mg, 3 mg, 10 mg, 30 mg, 120 mg, 240 mg; 5 subjects per group at 60 mg and 90 mg) and 14 subjects (23.3%) received placebo (2 subjects each in the 1 mg, 3 mg, 30 mg, 60 mg, 120 mg and 240 mg groups, and 1 subject each in the 10 mg and 90 mg groups). All 60 treated subjects (100%) completed the study and were included in the statistical analyses of safety (SAF: N=60). One out of 60 treated subjects was not valid for the analysis of pharmacodynamics due to vomiting before two times tmax (PDS: N=59). This same subject was also excluded from the PK analysis of the 46 verum-treated subjects, and all 14 placebo-treated subjects were not valid for the analysis of PK (PKS: N=45).
Bilirubin was measured employing a standard laboratory kit.

[2] = Multiple dose study Part B in healthy premenopausal tubal-ligated women, 28 days (safety, plasma bilirubin); assay type: in vivo; settings: for Plasma bilirubin concentrations above the upper limit of normal (subjects): tablets
Experimental: (§1) Plasma bilirubin levels were assessed prior to dosing and 1, 2, 6 and 14 days after drug administration. […] 30 mg (once daily), 90 mg (once daily) or 60 mg (twice daily) per 70 kg body weight for women of the AKR1C3 inhibitor over 14 days. Plasma bilirubin levels were assessed prior to dosing and 1, 2, 6, 10, 13, 15, 19 days after drug administration and at final examination. […] Plasma bilirubin levels were assessed prior to dosing and on cycle days 8, 12, 15, 22, 29, 33 after start of drug administration and at the follow up examinations.
(§2) The study was performed as an ascending dose study after multiple oral doses of the AKR1C3 inhibitor or placebo in 27 healthy postmenopausal (PM) women, aged 45 to 68 years (Part A) and 18 healthy tubal-ligated (TL) women, aged 18 to 48 (Part B).
The study consists of two parts: Part A was performed in healthy postmenopausal women (randomized within each dose level and placebo-controlled), Part B in healthy premenopausal women with tubal-ligation (open label; intraindividual comparison to pre-treatment cycle) with 28 days treatment (i.e. approx. one menstrual cycle). The safety of 30 mg once daily, 90 mg once daily, 60 mg twice/day of the AKR1C3 inhibitor given over 14 days was assessed in postmenopausal women prior to exposing premenopausal women to the corresponding doses of 60 mg once daily, 60 mg twice/day over 28 days. • Part A and Part B were further divided into different periods: • Part A: screening, pre-dose, treatment period 1 with single dose administration, treatment period 2 with multiple dose administration on 14 consecutive days and follow-up. […] Three increasing dosages of the AKR1C3 inhibitor were tested: 30 mg once daily, 90 mg once daily and 60 mg twice daily. In addition, a lower dose 3 mg once daily was evaluated. Nine volunteers per dose level were included into the study; thereof, n = 7 women were randomly assigned to treatment with the respective dose and n = 2 to placebo treatment. The study drug was administered in a double-blind manner within one dose level, i.e. all volunteers of that dose level received the same number of tablets identical in appearance. • Part B: screening, pre-dose (pre-treatment cycle), treatment period with multiple dose administration on 28 consecutive days and follow-up.

[3] = Embryonic (embryo-fetal) development study in rats; assay type: in vivo; settings: for NOAEL: female, rat, in vivo, po, pregnant rats, oral gavage once daily, Day 6 to Day 17 of gestation
Experimental: The NOAEL for developmental toxicity in rats is consequently the mid dose of 17 mg/kg.
The control received the vehicle in the same manner. All F0-females were sacrificed on Day 21 of gestation and the following parameters were recorded after removal and examination of the ovaries and the uteri: Number of corpora lutea, number and state of implantation sites (i.e, live foetus, early and late interauterine deaths, dead fetuses). […] Dead fetuses were classified as those which appeared to have died shortly before necropsy. Live foetuses were euthanised by a subcutaneous injection of sodium pentobarbitone. Individual foetal and placental weights were recorded and foetuses were examined for external abnormalities and sexed by external observation. Afterwards, approximately one half of the foetuses in each litter were examined for visceral abnormalities by microdissection. They were then eviscerated and the carcasses processed and Alizarin Red S stained for skeletal examination. The remaining foetuses were fixed in Bouin's fluid and examined for visceral abnormalities by the Wilson sectioning method. Foetal abnormalities were classified as malformations (rare and/or potentially lethal defects) and variations (commonly occurring non-lethal abnormalities).

[4] = Embryonic (embryo-fetal) development study in rabbits; assay type: in vivo; settings: for NOAEL: female, po, pregnant rabbits, oral gavage once daily, Day 6 to Day 19 of gestation
Experimental: However, the incidence of some foetal structural variations (= mild foetal structural abnormalities) was increased at the mid dose of 20 mg/kg and higher. […] Table 2: Preclinical safety margins
The control received the vehicle in the same manner. All F0-females were sacrificed on Day 29 of gestation and the following parameters were recorded after removal and examination of the ovaries and the uteri: Number of corpora lutea, number and state of implantation sites (i.e, live foetus, early and late interauterine deaths, dead fetuses). […] Dead fetuses were classified as those which appeared to have died shortly before necropsy. Live foetuses were euthanised by an intraperitoneal injection of sodium pentobarbitone. Individual foetal and placental weights were recorded and foetuses were examined for external abnormalities and sexed by external observation. All fetuses in each litter were examined for visceral abnormalities by microdissection, eviscerated and the carcasses processed and Alizarin Red S stained for skeletal examination. The intact heads of approximately one half of the fetuses in each litter were removed after the fetuses were killed and were processed in Bouin's fluid. The heads were then examined by the Wilson sectioning method. Foetal abnormalities were classified as malformations (rare and/or potentially lethal defects) and variations (commonly occurring non-lethal abnormalities). […] These variations were related to sternebra. […] This finding was not present in the background data. […] Thus, in summary, the NOAEL for maternal toxicity is considered to be 70 mg/kg. The NOAEL for developmental toxicity is regarded as 5 mg/kg due to the occurrence of foetal findings classified as variations at the dose of 20 mg/kg and higher.

[5] = cited from earlier work
AKR1C3 = biological target: T1, AKR1C3 (Homo sapiens, UniProt P42330); settings: as disclosed in WO 2013045407; cited from earlier work
T1 sequence (P42330 1-323): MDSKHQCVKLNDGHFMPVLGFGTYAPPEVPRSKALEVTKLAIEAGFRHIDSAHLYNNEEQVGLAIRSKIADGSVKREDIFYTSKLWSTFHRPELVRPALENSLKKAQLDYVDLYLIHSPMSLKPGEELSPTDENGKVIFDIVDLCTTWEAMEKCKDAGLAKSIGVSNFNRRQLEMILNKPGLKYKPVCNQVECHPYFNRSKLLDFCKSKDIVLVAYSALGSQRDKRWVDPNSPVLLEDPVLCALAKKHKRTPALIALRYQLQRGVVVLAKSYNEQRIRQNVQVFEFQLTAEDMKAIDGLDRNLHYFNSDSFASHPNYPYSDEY

[6] = Multiple dose study Part A in healthy postmenopausal women, 14 days (safety, plasma bilirubin); settings: for Plasma bilirubin concentrations above the upper limit of normal (subjects): tablets
Experimental: as §1, §2
The study consists of two parts: Part A was performed in healthy postmenopausal women (randomized within each dose level and placebo-controlled), Part B in healthy premenopausal women with tubal-ligation (open label; intraindividual comparison to pre-treatment cycle) with 28 days treatment (i.e. approx. one menstrual cycle). The safety of 30 mg once daily, 90 mg once daily, 60 mg twice/day of the AKR1C3 inhibitor given over 14 days was assessed in postmenopausal women prior to exposing premenopausal women to the corresponding doses of 60 mg once daily, 60 mg twice/day over 28 days. • Part A and Part B were further divided into different periods: • Part A: screening, pre-dose, treatment period 1 with single dose administration, treatment period 2 with multiple dose administration on 14 consecutive days and follow-up. A wash-out period between treatment period 1 (administration day) and treatment period 2 (first administration) of at least 14 days and not more than 28 days was necessary. Women received the study medication in a fasted state in period 1 (single dose) as well as on day 14 of period 2 (multiple dose). On day 1 of period 2 the study medication was given after breakfast to evaluate the food effect. Three increasing dosages of the AKR1C3 inhibitor were tested: 30 mg once daily, 90 mg once daily and 60 mg twice daily. In addition, a lower dose 3 mg once daily was evaluated. Nine volunteers per dose level were included into the study; thereof, n = 7 women were randomly assigned to treatment with the respective dose and n = 2 to placebo treatment. The study drug was administered in a double-blind manner within one dose level, i.e. all volunteers of that dose level received the same number of tablets identical in appearance. • Part B: screening, pre-dose (pre-treatment cycle), treatment period with multiple dose administration on 28 consecutive days and follow-up. In the pre-dose period, hormonal changes during a menstrual cycle including evidence of ovulation were evaluated. Study drug administration started on day 4 of the menstrual bleeding after end of the pre-treatment cycle, the study drug was then be taken on 28 consecutive days, independent of further menstrual bleedings. The pre-treatment cycle can be separated by up to 2 menstrual cycles from the treatment period.
Total bilirubin concentrations were monitored throughout this study.Bilirubin was measured employing a standard laboratory kit. The tests were performed according to the instructions as provided by the manufacturer (Beckman coulter kit AU680).

[7] = Risk assessment on reproductive and developmental toxicities (exposure ratios animal:human) combined with clinical studies
Source text: According to that regulatory guidance, there is increased concern for reproductive or developmental toxicity in humans for relative exposure ratios (animal: human) that are <10 and decreased concern for exposure ratios >25.

## CN(CCC(=O)O)C(=O)c1ccc2c(c1)CC[C@@H]1[C@@H]2CC[C@]2(C)C(c3cncc(F)c3)=CC[C@@H]12 [AKR1C3 inhibitor, N-{[17-(5-Fluoropyridin-3-yl)estra-1,3,5(10),16-tetraen-3-yl]carbonyl}-N-methyl-β-alanine]
[1]; female, human, in vivo
  drug-related TEAE headache: 21.7%
  drug-related TEAE nausea: 15.2%
  drug-related TEAE vomiting: 13.0%
[1]; in vivo
  Serious treatment-emergent adverse events (TEAEs): not reported
  indication for hemolysis: no indication for hemolysis
  signs of drug-induced liver injury (DILI): no signs of drug-induced liver injury (DILI) have been detected
[1]; single dose
  maximum tolerated dose: 120 mg
[1]; single oral dose
  well tolerated up to a single dose: ≤ 120 mg
[2]; 60 mg once daily over 28 days
  Plasma bilirubin concentrations above the upper limit of normal (subjects): 1 of 9
[2]; 60 mg once daily, premenopausal women, 4 weeks of treatment
  changes in plasma bilirubin: increases in plasma bilirubin were observed in a small fraction of subjects
[2]; 60 mg twice daily over 28 days
  Plasma bilirubin concentrations above the upper limit of normal (subjects): 2 of 9
[2]; 60 mg twice daily, 28 days
  changes in plasma bilirubin: increase in plasma bilirubin was observed in a significant fraction of subjects
[3]; 60 mg/kg, compared to the concurrent or historical control
  incidence of fetal visceral and skeletal variations: higher incidence
[3]; doses 0, 5, 17, 60 mg/kg, read-out: NOAEL for dev. toxicity
  NOAEL: 17 mg/kg
[3]; read-out: NOAEL for maternal toxicity
  NOAEL: 60 mg/kg
[3]; high dose 60 mg/kg, from eight dams, out of a total of 198 foetuses (control 1 foetus out of 211)
  incidence of malformations: 12 foetuses
[3]; rats at 17 mg/kg vs once daily 3 mg/day in humans
  higher systemic exposure (AUCunbound) at NOAEL than expected clinical exposure: ~122 fold
[3]; rats at 17 mg/kg vs once daily 30 mg/day in humans
  higher systemic exposure (AUCunbound) at NOAEL than expected clinical exposure: ~15 fold
[3]; rats at 17 mg/kg vs twice daily 60 mg/day in humans
  higher systemic exposure (AUCunbound) at NOAEL than expected clinical exposure: approximately 2 fold
[4]; rabbit, in vivo, doses 0, 5, 20, 70 mg/kg, read-out: NOAEL for dev. toxicity
  NOAEL: 5 mg/kg
[4]; rabbit, in vivo, read-out: NOAEL for maternal toxicity
  NOAEL: 70 mg/kg
[4]; rabbit, in vivo, 5 mg/kg
  occurrence of sternebra with increased ossification: very low incidence
[4]; rabbit, in vivo, 20 mg/kg
  incidence of some foetal structural variations: increased
[4]; rabbit, in vivo, 70 mg/kg
  incidence of a discoloured thymus in fetuses: slightly higher incidence
[4]; rabbits at 5 mg/kg vs once daily 3 mg/day in humans
  higher systemic exposure (AUCunbound) at NOAEL than expected clinical exposure: ~17 fold
[4]; rabbits at 5 mg/kg vs twice daily 60 mg/day in humans
  higher systemic exposure (AUCunbound) at NOAEL than expected clinical exposure: approximately 0.3 fold
[5]; 0.2 mg/kg and 0.8 mg/kg, given daily, compared to the vehicle group
  lesion load: reduction in lesion load
[5]; 30 mg/kg daily, compared with the vehicle group (WO 2013045407)
  lesions on the bladder and on/in the uterus: hardly any lesions could be found
AKR1C3
  AKR1C3 inhibition: potent
[6]; 60 mg twice daily over 14 days
  Plasma bilirubin concentrations above the upper limit of normal (subjects): 5 of 7
[6]; 60 mg twice daily, 14 days
  changes in plasma bilirubin: increase in plasma bilirubin was observed in a significant fraction of subjects
[6]; 90 mg once daily over 14 days
  Plasma bilirubin concentrations above the upper limit of normal (subjects): 1 of 7
[6]; 90 mg once daily, postmenopausal women, 2 weeks of treatment
  changes in plasma bilirubin: increases in plasma bilirubin were observed in a small fraction of subjects
[6]; multiple dosing, women
  well tolerated up to a dose: ≤ 60 mg twice daily
[6]; up to 30 mg once daily / 70 kg body weight, single and repeat dosing up to 14 days
  changes in plasma bilirubin: no changes in plasma bilirubin were observed
[7]
  dose of decreased concern for reproductive or developmental toxicity in humans: ≤ 3 mg daily dose
  dose of increased concern for reproductive or developmental toxicity in humans: > 15 mg daily dose
